Read-outs that look alike come from different tables or passages of the source.
How the values were obtained:
NCI-60 cancer cell lines [1] = details: five-dose; for Percent of Cell Lines Impacted (%), GI50: 50% Growth Inhibition; for Percent of Cell Lines Impacted (%), LC50: 50% Lethal Concentration reached; for Percent of Cell Lines Impacted (%), TGI / Total Impacted Cell Lines (n), TGI: Total Growth Inhibition
Text: (§1) All compounds submitted for screening were initially tested at a single high dose (10^-5 M) against the fill NCI 60 cell panel. Only compounds which satisfied pre-determined threshold inhibition criteria in a minimum number of cell lines progressed to a second round of testing utilizing a more comprehensive 5-dose inhibition assay. The threshold inhibition criteria for progression to the 5-dose assays were selected to efficiently capture compounds with anti-proliferative activity based on historical DTP screening data.
(§2) Concentrations for G150, IC50, TGI, and LC50 were calculated for all cell lines tested, and heat plots were prepared.

[2] = system: ovarian cancer cell lines; assay: cells; details: read-out: Average Concentration (M), LC50, Ovarian
Text: as §1, §2

[3] = system: non-small cell lung cancer cell lines; assay: NCI 60 one-dose screen; format: cell-based; details: of the 9 cell lines
renal cancer cell lines [4] = assay: NCI 60 one-dose screen; format: cell-based; details: of the 6 renal
colon cancer cell lines [5] = assay: NCI 60 one-dose screen; format: cell-based; details: of the 7 colon
colon cancer cell lines [6] = assay: cells; details: read-out: Average Concentration (M), LC50, Colon
Text: as §1, §2

NCI 60 cell panel = format: cell-based; details: one-dose
Text: A) Eight compounds were submitted to the National Cancer Institute (NCI) 60 tumor cell line drug discovery program (DTP) for anticancer screening.
as §1

NCI-60 cancer cell lines [7] = assay: cells
Text: as §1, §2

[8] = system: ovarian cancer cell lines
Text: as §1, §2

[9] = system: ovarian cancer cell lines; assay: NCI 60 one-dose screen; format: cell-based; details: of the 7 ovarian
[10] = system: breast cancer cells lines; assay: NCI 60 one-dose screen; format: cell-based; details: of the 6 breast
CNS cancer cell lines [11] = assay: cells; details: read-out: Average Concentration (M), LC50, CNS
Text: as §1, §2

CNS cancer cell lines [12] = system: CNS cancer cell lines
Text: as §1, §2

renal cancer cell lines [13] = assay: cells; details: read-out: Average Concentration (M), LC50, Renal
Text: as §1, §2

melanoma cell lines [14] = assay: NCI 60 one-dose screen; format: cell-based
renal cancer cell lines [15] = details: for Percent of Cell Lines Impacted (%), LC50, Renal: five-dose
Text: as §1, §2

CNS cancer cell lines [16] = assay: NCI 60 one-dose screen; format: cell-based; details: of the 6 CNS
melanoma cell lines [17] = assay: cells; details: read-out: Average Concentration (M), LC50, Melanoma
Text: as §1, §2

colon cancer cell lines [18] = system: colon cancer cell lines
Text: as §1, §2

melanoma cell lines [19] = details: for Percent of Cell Lines Impacted (%), LC50, Melanoma: five-dose
Text: as §1, §2

HDAC8 [20] = molecular target: T1, HDAC8 (Homo sapiens, UniProt Q9BY41); details: read-out: HDAC8 IC50; Table O1
T1 sequence (Q9BY41 1-377): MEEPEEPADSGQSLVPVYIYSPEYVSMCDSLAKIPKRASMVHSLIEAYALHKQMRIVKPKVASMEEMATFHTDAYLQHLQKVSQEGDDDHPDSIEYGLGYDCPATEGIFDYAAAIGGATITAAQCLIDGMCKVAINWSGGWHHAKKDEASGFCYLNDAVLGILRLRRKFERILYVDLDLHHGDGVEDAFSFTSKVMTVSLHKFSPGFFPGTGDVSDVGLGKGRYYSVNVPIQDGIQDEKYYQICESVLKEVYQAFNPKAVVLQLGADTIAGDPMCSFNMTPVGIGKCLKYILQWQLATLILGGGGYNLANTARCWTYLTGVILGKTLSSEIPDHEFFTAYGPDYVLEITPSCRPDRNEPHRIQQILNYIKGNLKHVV

HDAC6 = molecular target: T2, HDAC6 (Homo sapiens, UniProt Q9UBN7); details: read-out: HDAC6 IC50; Table O1; 200 μM TCEP
T2 sequence (Q9UBN7 1-1215): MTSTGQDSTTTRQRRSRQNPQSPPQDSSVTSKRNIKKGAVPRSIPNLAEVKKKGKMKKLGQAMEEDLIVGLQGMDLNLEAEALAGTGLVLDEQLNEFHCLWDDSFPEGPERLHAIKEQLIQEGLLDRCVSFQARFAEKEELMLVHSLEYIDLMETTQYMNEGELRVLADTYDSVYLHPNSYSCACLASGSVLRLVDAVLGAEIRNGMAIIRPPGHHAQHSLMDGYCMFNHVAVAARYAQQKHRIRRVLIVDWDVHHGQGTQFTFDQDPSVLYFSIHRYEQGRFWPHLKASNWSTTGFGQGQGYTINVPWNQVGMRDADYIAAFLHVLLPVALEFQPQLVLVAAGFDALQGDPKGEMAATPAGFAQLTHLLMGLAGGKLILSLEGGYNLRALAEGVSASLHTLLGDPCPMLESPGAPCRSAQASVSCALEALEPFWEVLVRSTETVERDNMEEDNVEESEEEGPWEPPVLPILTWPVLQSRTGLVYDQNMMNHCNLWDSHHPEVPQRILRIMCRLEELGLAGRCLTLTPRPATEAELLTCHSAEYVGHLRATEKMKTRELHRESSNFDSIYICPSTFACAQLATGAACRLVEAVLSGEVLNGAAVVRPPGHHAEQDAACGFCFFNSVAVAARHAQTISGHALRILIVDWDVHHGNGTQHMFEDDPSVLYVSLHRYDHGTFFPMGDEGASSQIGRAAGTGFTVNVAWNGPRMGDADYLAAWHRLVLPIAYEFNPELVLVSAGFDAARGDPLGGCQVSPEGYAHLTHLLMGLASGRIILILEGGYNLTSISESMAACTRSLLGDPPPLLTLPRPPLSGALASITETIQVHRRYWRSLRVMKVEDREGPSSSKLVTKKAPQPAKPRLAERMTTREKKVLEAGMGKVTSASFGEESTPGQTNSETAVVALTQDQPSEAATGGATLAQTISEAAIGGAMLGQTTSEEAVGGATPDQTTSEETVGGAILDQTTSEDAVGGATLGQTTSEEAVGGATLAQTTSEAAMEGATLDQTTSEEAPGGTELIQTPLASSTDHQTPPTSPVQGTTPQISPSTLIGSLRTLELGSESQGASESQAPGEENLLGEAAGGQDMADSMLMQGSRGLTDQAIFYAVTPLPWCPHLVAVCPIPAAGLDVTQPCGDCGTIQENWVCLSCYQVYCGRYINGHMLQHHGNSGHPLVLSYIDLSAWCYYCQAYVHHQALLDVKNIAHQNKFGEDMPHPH

HDAC3 = molecular target: T3, HDAC3 (Homo sapiens, UniProt O15379); assay: HDAC biochemical assay of O10-O12 (Table O1)
T3 construct: The recombinant, full-length HDAC protein (BPS Biosciences) was incubated; purchased BPS Biosciences

HDAC2 [21] = molecular target: T4, HDAC2 (Homo sapiens, UniProt Q92769); assay: HDAC biochemical assay of O10-O12 (Table O1); design: The recombinant, full-length HDAC protein (BPS Biosciences) was incubated; purchased BPS Biosciences
HDAC7 = HDAC7 (Homo sapiens, UniProt Q8WUI4); details: read-out: HDAC7 IC50; Table O1
HDAC1 [22] = molecular target: T5, HDAC1 (Homo sapiens, UniProt Q13547); details: read-out: HDAC1 IC50; Table O1
HDACs 1-3 = assay: HDAC biochemical assay of P5-P12, summary statements
HDAC1 [23] = molecular target: T5, HDAC1; assay: HDAC biochemical assay of P5-P12 (Table P1); design: The recombinant, full-length HDAC protein (BPS Biosciences) was incubated; purchased BPS Biosciences
HDAC1 [24] = molecular target: T5, HDAC1; details: read-out: HDAC inhibitory activity (Ki) HDAC1; Table 2
Text: (§3) To measure the inhibitory effect on deacetylase function in vitro, a continuous kinetic biochemical assay miniaturized to 384-well plate format was optimized.
(§4) Fluorescence measurements were obtained in real-time on a Varioskan microtiter plate reader (Thermo).

[25] = system: human malignant melanoma cell lines; assay: melanoma cell viability, ATP content (Cell TiterGlo); format: cell-based; details: range over panel of melanoma cell lines, FIG. 4, read-out: IC50 melanoma cell proliferation
HDAC2 [26] = molecular target: T4, HDAC2; format: biochemical; design: The recombinant, full-length HDAC protein (BPS Biosciences) was incubated; purchased BPS Biosciences; details: read-out: HDAC inhibitory activity (Ki) HDAC2
Text: as §3, §4

HDAC2 [27] = molecular target: T4, HDAC2; assay: HDAC biochemical assay of P5-P12 (Table P1); design: The recombinant, full-length HDAC protein (BPS Biosciences) was incubated; purchased BPS Biosciences
HDAC8 [28] = molecular target: T1, HDAC8; assay: HDAC biochemical assay of P5-P12 (Table P1); design: The recombinant, full-length HDAC protein (BPS Biosciences) was incubated; purchased BPS Biosciences
[29] = read-out: Average Concentration (M), GI50
[30] = read-out: GI50 concentrations (M), order of magnitude

T5 sequence (Q13547 whole entry): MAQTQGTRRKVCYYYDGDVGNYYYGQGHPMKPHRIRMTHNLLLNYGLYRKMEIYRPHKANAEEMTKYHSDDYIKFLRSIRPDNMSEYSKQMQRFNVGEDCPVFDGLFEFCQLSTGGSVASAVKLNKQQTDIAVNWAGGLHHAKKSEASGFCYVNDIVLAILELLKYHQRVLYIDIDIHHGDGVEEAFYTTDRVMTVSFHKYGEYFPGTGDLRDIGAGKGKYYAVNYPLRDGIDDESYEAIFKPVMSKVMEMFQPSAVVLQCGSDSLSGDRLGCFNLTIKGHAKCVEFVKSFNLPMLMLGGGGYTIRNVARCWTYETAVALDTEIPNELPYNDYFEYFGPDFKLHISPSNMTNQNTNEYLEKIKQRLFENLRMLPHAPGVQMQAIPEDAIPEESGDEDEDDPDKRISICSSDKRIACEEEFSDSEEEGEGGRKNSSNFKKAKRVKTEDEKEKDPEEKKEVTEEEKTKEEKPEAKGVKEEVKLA
T4 sequence (Q92769 whole entry): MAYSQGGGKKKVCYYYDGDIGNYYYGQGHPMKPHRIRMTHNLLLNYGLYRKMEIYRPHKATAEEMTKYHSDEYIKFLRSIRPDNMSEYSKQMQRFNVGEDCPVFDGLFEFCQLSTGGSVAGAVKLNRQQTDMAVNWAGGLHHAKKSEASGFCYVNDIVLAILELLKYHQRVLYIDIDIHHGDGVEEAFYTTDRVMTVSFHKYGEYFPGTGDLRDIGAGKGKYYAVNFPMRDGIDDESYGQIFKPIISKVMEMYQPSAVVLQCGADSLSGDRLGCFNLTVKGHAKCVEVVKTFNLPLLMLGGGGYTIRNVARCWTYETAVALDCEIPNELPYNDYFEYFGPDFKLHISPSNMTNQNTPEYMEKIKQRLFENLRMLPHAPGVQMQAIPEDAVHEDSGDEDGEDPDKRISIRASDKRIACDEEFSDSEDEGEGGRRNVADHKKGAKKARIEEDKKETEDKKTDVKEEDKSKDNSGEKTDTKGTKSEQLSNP
T3 sequence (O15379 whole entry): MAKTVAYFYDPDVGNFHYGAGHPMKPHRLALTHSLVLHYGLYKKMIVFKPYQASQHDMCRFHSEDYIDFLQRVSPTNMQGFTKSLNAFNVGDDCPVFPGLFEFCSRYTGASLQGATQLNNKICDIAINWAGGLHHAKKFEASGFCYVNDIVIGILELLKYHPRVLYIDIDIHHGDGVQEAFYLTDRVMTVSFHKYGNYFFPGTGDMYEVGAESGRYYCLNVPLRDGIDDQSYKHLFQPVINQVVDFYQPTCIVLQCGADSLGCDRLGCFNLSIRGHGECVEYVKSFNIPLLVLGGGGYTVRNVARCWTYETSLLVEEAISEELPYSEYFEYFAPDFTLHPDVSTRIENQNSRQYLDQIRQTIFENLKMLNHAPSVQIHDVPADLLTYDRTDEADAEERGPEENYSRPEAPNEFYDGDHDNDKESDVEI
T3 sequence (Q9Y618 395-489 partner limits assumed): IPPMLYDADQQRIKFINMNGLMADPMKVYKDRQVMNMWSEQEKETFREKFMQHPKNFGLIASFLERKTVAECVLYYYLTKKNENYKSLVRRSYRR
HDAC7, sequence (Q8WUI4 518-952 limits assumed): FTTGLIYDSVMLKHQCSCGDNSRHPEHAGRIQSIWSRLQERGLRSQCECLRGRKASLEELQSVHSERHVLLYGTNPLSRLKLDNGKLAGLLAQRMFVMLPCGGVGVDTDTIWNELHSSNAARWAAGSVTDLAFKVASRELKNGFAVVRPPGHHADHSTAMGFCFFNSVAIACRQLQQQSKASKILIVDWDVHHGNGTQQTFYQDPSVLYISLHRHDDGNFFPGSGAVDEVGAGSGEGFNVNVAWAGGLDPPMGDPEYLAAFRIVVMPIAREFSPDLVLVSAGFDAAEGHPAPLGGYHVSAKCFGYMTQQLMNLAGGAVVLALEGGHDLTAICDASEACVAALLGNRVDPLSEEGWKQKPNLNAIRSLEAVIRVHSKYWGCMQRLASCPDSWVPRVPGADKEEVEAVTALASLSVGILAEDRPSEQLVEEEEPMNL

Compound: CCCCCCCC(=O)SCC/C=C/[C@@H]1CC(=O)NCc2nc(co2)C2=N[C@@](C)(CS2)C(=O)N[C@@H](C(C)C)C(=O)O1 [compound of formula D]
- Percent of Cell Lines Impacted (%), GI50 (NCI-60 cancer cell lines [1]): 100%
- Percent of Cell Lines Impacted (%), LC50 (NCI-60 cancer cell lines [1]): 16%
- Percent of Cell Lines Impacted (%), TGI (NCI-60 cancer cell lines [1]): 67%
- Total Impacted Cell Lines (n), TGI (NCI-60 cancer cell lines [1]): 38
- Average Concentration (M), TGI (NCI-60 cancer cell lines [1]; average over impacted cell lines): 4.57e-06 M
- CC50 [2]: 2.34e-06 M
- cell lines with some level of lethality [3]: 7
- cell lines with some level of lethality (renal cancer cell lines [4]): 4
- cell lines with some level of lethality (colon cancer cell lines [5]): 4
- CC50 (colon cancer cell lines [6]): 1.47e-06 M
- percent of NCI cell lines with some level of lethality (NCI 60 cell panel; 58 cell lines tested): 55%
- NCI cell lines with some level of lethality (NCI 60 cell panel; of 58 cell lines tested): 32
- GI50 (NCI-60 cancer cell lines [7]; [29]): 3.83e-08 M
- CC50 (NCI-60 cancer cell lines [7]; read-out: Average Concentration (M), LC50): 5.48e-06 M
- GI50 (NCI-60 cancer cell lines [7]; [30]): 1e-08 M
- CC50 (NCI-60 cancer cell lines [7]; read-out: LC50 concentrations, order of magnitude): 1e-06 M
- Total Impacted Cell Lines (n), LC50, Ovarian [8]: 1
- Percent of Cell Lines Impacted (%), LC50, Ovarian ([8]; five-dose): 14%
- cell lines with some level of lethality [9]: 4
- cell lines with some level of lethality [10]: 3
- CC50 (CNS cancer cell lines [11]): 1.95e-05 M
- Total Impacted Cell Lines (n), LC50, CNS (CNS cancer cell lines [12]): 1
- Percent of Cell Lines Impacted (%), LC50, CNS (CNS cancer cell lines [12]; five-dose): 20%
- CC50 (renal cancer cell lines [13]): 1.17e-05 M
- lethality in select melanoma cell lines (melanoma cell lines [14]; one-dose studies): > 90%
- cell lines with some level of lethality (melanoma cell lines [14]; one-dose, of the 9 melanoma): 8
- Total Impacted Cell Lines (n), LC50, Renal (renal cancer cell lines [15]): 2
- Percent of Cell Lines Impacted (%), LC50, Renal (renal cancer cell lines [15]): 25%
- cell lines with some level of lethality (CNS cancer cell lines [16]): 2
- CC50 (melanoma cell lines [17]): 3.72e-07 M
- Total Impacted Cell Lines (n), LC50, Colon (colon cancer cell lines [18]): 2
- Percent of Cell Lines Impacted (%), LC50, Colon (colon cancer cell lines [18]; five-dose): 29%
- Total Impacted Cell Lines (n), LC50, Melanoma (melanoma cell lines [19]): 3
- Percent of Cell Lines Impacted (%), LC50, Melanoma (melanoma cell lines [19]): 38%

Compound: CC(C)[C@@H]1NC(=O)[C@]2(C)CSC(=N2)c2coc(n2)CNC(=O)C[C@@H](/C=C/CCS)OC1=O [Compound O11, Thiazoline-Oxazole Thiol Analog]
- IC50 (HDAC8 [20]): 1200 nM
- IC50 (HDAC6): 98 nM
- IC50 (HDAC3): 7.2 nM
- IC50 (HDAC2 [21]): 20 nM
- IC50 (HDAC7): 960 nM
- IC50 (HDAC1 [22]): 4.4 nM

Compound: CCCCCCCC(=O)SCC/C=C/[C@@H]1CC(=O)NCc2nc(cs2)C2=N[C@@](C)(CS2)C(=O)N[C@@H](C(C)C)C(=O)O1 [Largazole, largazole, reference compound]
- Percent of Cell Lines Impacted (%), GI50 (NCI-60 cancer cell lines [1]): 100%
- Percent of Cell Lines Impacted (%), LC50 (NCI-60 cancer cell lines [1]): 7%
- Percent of Cell Lines Impacted (%), TGI (NCI-60 cancer cell lines [1]): 58%
- Total Impacted Cell Lines (n), TGI (NCI-60 cancer cell lines [1]): 34
- IC50 range in words for HDACs 1-3 (HDACs 1-3): high nM-μM range
- IC50 (HDAC2 [21]): 900 nM
- IC50 (HDAC1 [23]): 10.1 nM
- GI50 (NCI-60 cancer cell lines [7]; [29]): 2.1e-06 M
- GI50 (NCI-60 cancer cell lines [7]; [30]): 1e-06 M
- IC50 (HDAC1 [22]): 230 nM
- Ki (HDAC1 [24]): 20 nM
- IC50 [25]: 45 to 315 nM
- Ki (HDAC2 [26]): 21 nM
- Percent of Cell Lines Impacted (%), LC50, Renal (renal cancer cell lines [15]): 14%
- CC50 (melanoma cell lines [17]): 3.55e-06 M
- Percent of Cell Lines Impacted (%), LC50, Melanoma (melanoma cell lines [19]): 33%
- IC50 (HDAC2 [27]): 18.6 nM
- IC50 (HDAC8 [28]): 1070 nM
